Data reported in the supplement of paper PMC6045584.
± gives the standard deviation of the averaged measurements.

What was measured:
[1] = compound: T1, O=C(O)C1(C(=O)O)CCC1.[NH2-].[NH2-].[Pt+2] [CARBOPLATIN]; test: surviving fraction relative to DMSO-only wells; higher = less growth inhibition; conditions: exposure time: 5 days
Procedure, shortened: (§1)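 After seeding at 250–500 cells per well in 384-well plates and a 24-hour wait, log-phase tumour cell lines were exposed without interruption for five days to inhibitors at 0.5, 1, 5, 10, 50, 100, 500 and 1000 nM. CellTiter-Glo luminescence was recorded after 10 minutes at room temperature. Viability is reported as surviving fraction, the luminescence normalised to the median of DMSO-only wells.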

[2] = compound: CC(=O)NCC(=O)N1[C@@H]2CC[C@H]1c1ccc(Nc3ncc(C(F)(F)F)c(NC4CCC4)n3)cc12; test: as above; conditions: exposure time: 5 days
Procedure, shortened: as §1

[3] = compound: T2, CC(=O)O[C@H]1C(=O)[C@@]2(C)[C@H]([C@H](OC(=O)c3ccccc3)[C@]3(O)C[C@H](OC(=O)[C@H](O)[C@@H](NC(=O)c4ccccc4)c4ccccc4)C(C)=C1C3(C)C)[C@]1(OC(C)=O)CO[C@@H]1C[C@@H]2O [PACLITAXEL]; test: as above; conditions: exposure time: 5 days
Procedure, shortened: as §1

[4] = compound: T3, Cc1ccc(-c2cc(C(F)(F)F)nn2-c2ccc(S(N)(=O)=O)cc2)cc1 [CELECOXIB]; test: as above; conditions: exposure time: 5 days
Procedure, shortened: as §1

[5] = compound: T4, CC[C@@]1(O)C(=O)OCc2c1cc1n(c2=O)Cc2cc3ccccc3nc2-1 [CAMPTOTHECIN]; test: as above; conditions: exposure time: 5 days
Procedure, shortened: as §1

[6] = compound: T5, COCC[n+]1c2c(n(Cc3cnccn3)c1C)C(=O)c1ccccc1C2=O [YM155]; test: as above; conditions: exposure time: 5 days
Procedure, shortened: as §1

[7] = compound: T6, COc1cc2ncnc(Nc3ccc(F)c(Cl)c3)c2cc1OCCCN1CCOCC1 [GEFITINIB]; test: as above; conditions: exposure time: 5 days
Procedure, shortened: as §1

[8] = compound: CC(=O)c1c(C)c2cnc(Nc3ccc(N4CCNCC4)cn3)nc2n(C2CCCC2)c1=O; test: as above; conditions: exposure time: 5 days
Procedure, shortened: as §1

[9] = compound: T7, C[C@]1(O)C[C@@H](c2nc(-c3ccc4ccc(-c5ccccc5)nc4c3)c3c(N)nccn32)C1 [OSI-906]; test: as above; conditions: exposure time: 5 days
Procedure, shortened: as §1

[10] = compound: T1, CARBOPLATIN; test: area under dose-response curve of surviving fraction (unscaled, Aref=0) (surviving fraction x log10(nM)); higher = more resistant; conditions: exposure time: 5 days; dose range 0.5-1000 nM
Procedure, shortened: (§2)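 Surviving fractions were fitted by 3-parameter logistic regression in the drc R package to give dose-response survival curves. They came from tumour cell lines treated for five days with eight inhibitor concentrations from 0.5 to 1000 nM and read by CellTiter-Glo luminescence against DMSO-only wells. The area under the curve is the unscaled activity area. It was calculated over log10 dose with Aref = 0.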

[11] = compound: CC(=O)NCC(=O)N1[C@@H]2CC[C@H]1c1ccc(Nc3ncc(C(F)(F)F)c(NC4CCC4)n3)cc12; test: as above; conditions: exposure time: 5 days; dose range 0.5-1000 nM
Procedure, shortened: as §2

[12] = compound: T2, PACLITAXEL; test: as above; conditions: exposure time: 5 days; dose range 0.5-1000 nM
Procedure, shortened: as §2

[13] = compound: T3, CELECOXIB; test: as above; conditions: exposure time: 5 days; dose range 0.5-1000 nM
Procedure, shortened: as §2

[14] = compound: T4, CAMPTOTHECIN; test: as above; conditions: exposure time: 5 days; dose range 0.5-1000 nM
Procedure, shortened: as §2

[15] = compound: T5, YM155; test: as above; conditions: exposure time: 5 days; dose range 0.5-1000 nM
Procedure, shortened: as §2

[16] = compound: T6, GEFITINIB; test: as above; conditions: exposure time: 5 days; dose range 0.5-1000 nM
Procedure, shortened: as §2

[17] = compound: CC(=O)c1c(C)c2cnc(Nc3ccc(N4CCNCC4)cn3)nc2n(C2CCCC2)c1=O; test: as above; conditions: exposure time: 5 days; dose range 0.5-1000 nM
Procedure, shortened: as §2

[18] = compound: T7, OSI-906; test: as above; conditions: exposure time: 5 days; dose range 0.5-1000 nM
Procedure, shortened: as §2

Test System: JIMT1 BREAST
- surviving fraction ([1]; 0.5 nM): 0.97 ± 0.037
- surviving fraction ([1]; 1 nM): 0.949 ± 0.027
- surviving fraction ([1]; 5 nM): 0.999 ± 0.014
- surviving fraction ([1]; 10 nM): 0.969 ± 0.015
- surviving fraction ([1]; 50 nM): 1.09 ± 0.036
- surviving fraction ([1]; 100 nM): 0.949 ± 0.06
- surviving fraction ([1]; 500 nM): 1.03 ± 0.031
- surviving fraction ([1]; 1000 nM): 0.95 ± 0.07
- surviving fraction ([2]; 0.5 nM): 0.996 ± 0.044
- surviving fraction ([2]; 1 nM): 1.01 ± 0.032
- surviving fraction ([2]; 5 nM): 1 ± 0.036
- surviving fraction ([2]; 10 nM): 0.97 ± 0.02
- surviving fraction ([2]; 50 nM): 1.03 ± 0.053
- surviving fraction ([2]; 100 nM): 0.763 ± 0.024
- surviving fraction ([2]; 500 nM): 0.705 ± 0.0076
- surviving fraction ([2]; 1000 nM): 0.593 ± 0.029
- surviving fraction ([3]; 0.5 nM): 0.618 ± 0.028
- surviving fraction ([3]; 1 nM): 0.293 ± 0.024
- surviving fraction ([3]; 5 nM): 0.16 ± 0.0026
- surviving fraction ([3]; 10 nM): 0.119 ± 0.011
- surviving fraction ([3]; 50 nM): 0.0905 ± 0.0083
- surviving fraction ([3]; 100 nM): 0.0907 ± 0.0037
- surviving fraction ([3]; 500 nM): 0.0727 ± 0.008
- surviving fraction ([3]; 1000 nM): 0.0808 ± 0.0025
- surviving fraction ([4]; 0.5 nM): 1.04 ± 0.039
- surviving fraction ([4]; 1 nM): 1.04 ± 0.023
- surviving fraction ([4]; 5 nM): 1.06 ± 0.039
- surviving fraction ([4]; 10 nM): 1.08 ± 0.051
- surviving fraction ([4]; 50 nM): 1.04 ± 0.021
- surviving fraction ([4]; 100 nM): 1.08 ± 0.015
- surviving fraction ([4]; 500 nM): 1.08 ± 0.062
- surviving fraction ([4]; 1000 nM): 1.07 ± 0.024
- surviving fraction ([5]; 0.5 nM): 0.894 ± 0.018
- surviving fraction ([5]; 1 nM): 0.893 ± 0.058
- surviving fraction ([5]; 5 nM): 0.8377 ± 0.0059
- surviving fraction ([5]; 10 nM): 0.655 ± 0.048
- surviving fraction ([5]; 50 nM): 0.433 ± 0.024
- surviving fraction ([5]; 100 nM): 0.394 ± 0.034
- surviving fraction ([5]; 500 nM): 0.066 ± 0.0031
- surviving fraction ([5]; 1000 nM): 0.0517 ± 0.0014
- surviving fraction ([6]; 0.5 nM): 0.971 ± 0.033
- surviving fraction ([6]; 1 nM): 0.992 ± 0.021
- surviving fraction ([6]; 5 nM): 0.888 ± 0.033
- surviving fraction ([6]; 10 nM): 0.543 ± 0.056
- surviving fraction ([6]; 50 nM): 0.0545 ± 0.0027
- surviving fraction ([6]; 100 nM): 0.0323 ± 0.0027
- surviving fraction ([6]; 500 nM): 0.0275 ± 0.0013
- surviving fraction ([6]; 1000 nM): 0.0318 ± 0.0055
- surviving fraction ([7]; 0.5 nM): 1.02 ± 0.051
- surviving fraction ([7]; 1 nM): 1.02 ± 0.016
- surviving fraction ([7]; 5 nM): 1.03 ± 0.028
- surviving fraction ([7]; 10 nM): 1.02 ± 0.022
- surviving fraction ([7]; 50 nM): 1.06 ± 0.027
- surviving fraction ([7]; 100 nM): 1.03 ± 0.046
- surviving fraction ([7]; 500 nM): 0.811 ± 0.043
- surviving fraction ([7]; 1000 nM): 0.773 ± 0.047
- surviving fraction ([8]; 0.5 nM): 0.959 ± 0.013
- surviving fraction ([8]; 1 nM): 0.9905 ± 0.0018
- surviving fraction ([8]; 5 nM): 0.993 ± 0.024
- surviving fraction ([8]; 10 nM): 0.964 ± 0.027
- surviving fraction ([8]; 50 nM): 1.1 ± 0.03
- surviving fraction ([8]; 100 nM): 1 ± 0.031
- surviving fraction ([8]; 500 nM): 1.05 ± 0.014
- surviving fraction ([8]; 1000 nM): 1.01 ± 0.032
- surviving fraction ([9]; 0.5 nM): 0.921 ± 0.029
- surviving fraction ([9]; 1 nM): 0.892 ± 0.02
- surviving fraction ([9]; 5 nM): 0.92 ± 0.063
- surviving fraction ([9]; 10 nM): 0.926 ± 0.03
- surviving fraction ([9]; 50 nM): 1.02 ± 0.039
- surviving fraction ([9]; 100 nM): 1.08 ± 0.094
- surviving fraction ([9]; 500 nM): 1.02 ± 0.077
- surviving fraction ([9]; 1000 nM): 1.02 ± 0.046
- area under dose-response curve [10]: 3.31
- area under dose-response curve [11]: 2.96
- area under dose-response curve [12]: 0.48
- area under dose-response curve [13]: 3.51
- area under dose-response curve [14]: 1.8
- area under dose-response curve [15]: 1.39
- area under dose-response curve [16]: 3.29
- area under dose-response curve [17]: 3.35
- area under dose-response curve [18]: 3.15
